According to patent publication US9689841B2, “Fluorescent pI markers for isoelectric focusing separations and fluorescent labeling” (The Texas A&M University System, priority 2011, dated 2017):
Read-outs that look alike come from different tables or passages of the source.

What was measured:
[1] = cited from earlier work
[2] = from the two pKa values
[3] = first (lower) of the two pKa values
[4] = second (higher) of the two pKa values

SMILES	pKa [1, 3]	pKa [1, 4]	pKa (physchem)	pI [2]
O=C(O)c1ccccc1C(=O)O [1,2-benzenedicarboxylic acid]	2.76	4.92	–	–
O=C(O)c1ccc(C(=O)O)cc1 [1,4-benzenedicarboxylic acid]	3.60	4.50	–	–
O=C(O)c1ccccn1 [pyridine-2-carboxylic acid]	–	–	2.1	3.105
O=C(O)c1cccnc1 [pyridine-3-carboxylic acid]	–	–	1.3	3.365
O=C(O)c1ccncc1 [pyridine-4-carboxylic acid]	1.8	4.88	1.54	3.34
